{"source": "patent US12648951B2", "about": "“Methods of treating castration-resistant prostate cancer with glucocorticoid receptor antagonists, androgen deprivation therapy and anti-androgen receptor therapy” (University of Chicago, priority 2012, dated 2026)", "key": {"[1]": {"test_system": "LAPC4 prostate cancer cell line", "test": "Cell survival of LAPC4 cells grown with MDV3100, R1881, Dex, Mif, GSK650394", "assay_type": "cell-based, human", "source_text": "(§1) GR Antagonist Studies. […]. SGK1-FLAG or vector was stably expressed and cellular viability, secreted PSA, and protein lysates were collected."}, "[2]": {"test_system": "CWR-22RV1 (22RV1) prostate cancer cell line", "test": "Cell survival of CWR-22RV1 cells grown with MDV3100, R1881, Dex, GSK650394", "assay_type": "cell-based, human", "source_text": "as §1"}, "SGK1": {"test_system": "SGK1", "test": "Expression of SGK1 in prostate cancer cell lines", "assay_type": "cell-based, human", "conditions": "MDV3100, and addition of Dex", "source_text": "as §1"}, "[3]": {"test_system": "castration-resistant prostate cancer patients who have received prior docetaxel", "conditions": "cited from earlier work"}, "[4]": {"test_system": "metastatic castration-resistant prostate cancer patients", "conditions": "cited from earlier work"}, "[5]": {"test_system": "LNCaP cells engineered to express elevated levels of AR", "conditions": "cited from earlier work"}, "breast cancer cell": {"test_system": "breast cancer cell", "conditions": "cited from earlier work"}, "[6]": {"test_system": "prostate specific antigen serum levels", "conditions": "after a month of taking the medicine; cited from earlier work"}, "CWR-22RV1 cell line": {"test_system": "CWR-22RV1 cell line", "test": "GR expression following MDV3100 treatment, CWR-22RV1", "assay_type": "cell-based, human"}, "CRPC cell lines [7]": {"test_system": "CRPC cell lines", "test": "GR expression level in CRPC cell lines", "assay_type": "cell-based, human", "conditions": "addition of MDV3100, within 3-7 days"}, "LAPC4 cell line": {"test_system": "LAPC4 cell line", "test": "GR expression following MDV3100 treatment, LAPC4", "assay_type": "cell-based, human"}, "CRPC cell lines [8]": {"test_system": "CRPC cell lines", "test": "Proliferation / growth of castrate-resistant prostate cancer cell lines", "assay_type": "cell-based, human", "source_text": "as §1"}, "[9]": {"conditions": "cited from earlier work"}, "advanced prostate cancer": {"test_system": "advanced prostate cancer", "conditions": "cited from earlier work"}, "[10]": {"conditions": "at 9 months; cited from earlier work"}}, "note": "Where two headings read alike, the source gives them in different places.", "data": [{"smiles": "O=C(O)c1ccc(-c2c[nH]c3ncc(-c4ccccc4)cc23)cc1C1CCCC1", "note": "[GSK650394]", "values": [{"measurement": "% survival relative to R1881+Dex control", "setting": "[1]; LAPC4, GSK650394 added to MDV3100+Dex", "value": 19, "unit": "%"}, {"measurement": "cell survival following treatment with the SGK1 inhibitor", "setting": "[2]; results similar to LAPC4", "value": "impaired"}]}, {"smiles": "CNC(=O)c1ccc(N2C(=S)N(c3ccc(C#N)c(C(F)(F)F)c3)C(=O)C2(C)C)cc1F", "note": "[MDV3100]", "values": [{"measurement": "Expression of SGK1", "setting": "SGK1", "value": "reduced"}, {"measurement": "lived longer than those taking placebo", "setting": "[3]; AFFIRM interim analysis", "value": "approximately 5 months"}, {"measurement": "median survival after progression on MDV3100", "setting": "[3]; in vivo", "value": "under 1 year"}, {"measurement": "survival advantage", "setting": "[3]; phase III, reported in 2012", "value": "4-5 month"}, {"measurement": "Median time to radiographic progression", "setting": "[4]; chemo-naive patients", "value": 56, "unit": "weeks"}, {"measurement": "patients with PSA level decreased more than 50 percent", "setting": "[4]; chemo-naive patients", "value": "40/65"}, {"measurement": "patients with PSA level decreased more than 50 percent", "setting": "[4]; chemotherapy-treated patients", "value": "38/75"}, {"measurement": "Median time to radiographic progression", "setting": "[4]; post-chemotherapy population", "value": 25, "unit": "weeks"}, {"measurement": "expression of androgen dependent genes PSA and TMPRSS2", "setting": "[5]", "value": "down regulated"}, {"measurement": "breast cancer cell growth", "setting": "breast cancer cell", "value": "inhibits breast cancer cell growth"}, {"measurement": "decrease in prostate specific antigen serum levels", "setting": "[6]", "value": "≤ 89", "unit": "%"}, {"measurement": "reduction in cell death compared to R1881+Dex control", "setting": "[1]; LAPC4", "value": 26, "unit": "%"}, {"measurement": "cell survival compared to R1881 control", "setting": "[1]; LAPC4, MDV3100 with vs without Dex", "value": 47, "unit": "%"}, {"measurement": "survival under MDV3100 treatment", "setting": "[1]; SGK1-Flag over-expressing LAPC4 cells", "value": 61, "unit": "%"}, {"measurement": "survival under MDV3100 treatment", "setting": "[1]; vector control LAPC4 cells", "value": 24, "unit": "%"}, {"measurement": "cell survival", "setting": "[2]; MDV3100 with vs without Dex", "value": 51, "unit": "%"}, {"measurement": "GR expression", "setting": "CWR-22RV1 cell line", "value": "increased"}, {"measurement": "GR expression level", "setting": "CRPC cell lines [7]", "value": "significantly increases"}, {"measurement": "GR expression", "setting": "LAPC4 cell line", "value": "increased"}]}, {"smiles": "CC#C[C@]1(O)CC[C@H]2[C@@H]3CCC4=CC(=O)CCC4=C3[C@@H](c3ccc(N(C)C)cc3)C[C@@]21C", "note": "[Mif, mifepristone]", "values": [{"measurement": "proliferation with addition of a GR inhibitor to MDV3100 under GR activation", "setting": "CRPC cell lines [8]", "value": "restoring the decrease in proliferation"}, {"measurement": "change in survival compared to R1881+Dex control", "setting": "[1]; LAPC4, addition of Mif alone", "value": "no change in survival"}]}, {"smiles": "CC(C)C(=O)Nc1ccc([N+](=O)[O-])c(C(F)(F)F)c1", "note": "[flutamide]", "values": [{"measurement": "hepatic impairment", "setting": "[9]; doses of 125 mg/day or less", "value": "No cases of hepatic impairment"}, {"measurement": "hepatotoxicity", "setting": "[9]; warnings from patients using 750 mg daily", "value": "fatal hepatotoxicity has been reported"}]}, {"smiles": "CCNC(=O)[C@@H]1CCCN1C(=O)[C@H](CCCNC(=N)N)NC(=O)[C@H](CC(C)C)NC(=O)[C@@H](CC(C)C)NC(=O)[C@H](Cc1ccc(O)cc1)NC(=O)[C@H](CO)NC(=O)[C@H](Cc1c[nH]c2ccccc12)NC(=O)[C@H](Cc1c[nH]cn1)NC(=O)[C@@H]1CCC(=O)N1", "note": "[leuprolide]", "values": [{"measurement": "cardiovascular toxicity", "setting": "advanced prostate cancer; human, in vivo", "value": "lower incidence of cardiovascular toxicity"}, {"measurement": "reducing serum testosterone to castrate levels", "setting": "advanced prostate cancer; monthly depot", "value": "equivalent to 3 mg of DES"}, {"measurement": "Overall survival", "setting": "[10]", "value": 90.5, "unit": "%"}]}, {"smiles": "CC(C)C[C@H](NC(=O)[C@@H](Cc1c[nH]c2ccccc12)NC(=O)[C@H](Cc1ccc(O)cc1)NC(=O)[C@H](CO)NC(=O)[C@H](Cc1c[nH]c2ccccc12)NC(=O)[C@H](Cc1c[nH]cn1)NC(=O)[C@@H]1CCC(=O)N1)C(=O)N[C@@H](CCCNC(=N)N)C(=O)N1CCC[C@H]1C(=O)NCC(N)=O", "note": "[triptorelin]", "values": [{"measurement": "Overall survival", "setting": "[10]", "value": 97, "unit": "%"}]}]}
